# Measurements: patent publication US8932610B2, “Aqueous clear solutions of fluocinolone acetonide for treatment of otic inflammation” (Laboratorios Salvat, S.A., priority 2010, dated 2015)
# Structures can show the parent of a compound that is named as a salt.
# Assays:
# [1] = Concentration of active ingredient before and after filtration through 0.22 μm filter; type: physicochemical
# [2] = cited from earlier work
# [3] = Batch 1, after filtration (0.22 μm filter)
# [4] = Batch 1, before filtration (0.22 μm filter)
# [5] = Batch 2, after filtration (0.22 μm filter)
# [6] = Batch 2, before filtration (0.22 μm filter)
compound,measurement,setting,value
O=C(O)c1cn(C2CC2)c2cc(N3CCNCC3)c(F)cc2c1=O [Ciprofloxacin HCl],% of theoretical,[1]; [3],97.7%
same,Concentration,[1]; [3],0.341%
same,% of theoretical,[1]; [4],98.0%
same,Concentration,[1]; [4],0.342%
same,% of theoretical,[1]; [5],98.0%
same,Concentration,[1]; [5],0.342%
same,% of theoretical,[1]; [6],98.0%
same,Concentration,[1]; [6],0.342%
CC1(C)O[C@@H]2C[C@H]3[C@@H]4C[C@H](F)C5=CC(=O)C=C[C@]5(C)[C@@]4(F)[C@@H](O)C[C@]3(C)[C@]2(C(=O)CO)O1 [Fluocinolone Acetonide],% of theoretical,[1]; [3],100.0%
same,Concentration,[1]; [3],0.025%
same,% of theoretical,[1]; [4],100.0%
same,Concentration,[1]; [4],0.025%
same,% of theoretical,[1]; [5],100.0%
same,Concentration,[1]; [5],0.025%
same,% of theoretical,[1]; [6],100.0%
same,Concentration,[1]; [6],0.025%
same,Solubility in water,[2],virtually insoluble in water
